This note sets out measurements from patent US20250230138A1, “COMPOUNDS HAVING A T-STRUCTURE FORMED BY AT LEAST FOUR CYCLES FOR USE IN THE TREATMENT OF CANCER AND OTHER INDICATIONS” (TheRas, Inc., priority 2022, published 2025).

In assay [1] the target is Cys242 in human PIK3CA (157-299) (Homo sapiens (Human), UniProt P42336). Put plainly: Covalent modification assay using MALDI-TOF MS. As to conditions: 4 h reaction time point. Type of assay: biochemical. The essentials:
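PIK3CA (157-299) at 3.33 μM or 1 μM in 20 mM HEPES, 150 mM NaCl, 2 mM MgCl2, pH 7.3 was incubated with compound (from 10 mM DMSO stocks) in the dark at room temperature for 15 min, 30 min, 2 h or 4 h. Linear-mode MALDI-TOF peak heights gave percent modification.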

For a further assay, the system named is pAKT in BT474 cells. The experiment in a line: Cell-based pAKT HTRF assay in BT474 cells. Conditions: BT474 cells, 4 hr incubation, read-out: pAKT inhibition IC50 in BT474 cells. The essentials: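 Cells grown in DMEM with 10% FBS were exposed to compounds for 4 hr in 0.25% DMSO, using a 9-point, 3-fold dilution series that starts at 3 μM. Lysates were incubated with d2 and Eu Cryptate antibodies for 4–24 h at room temperature, and HTRF was read at 615 nm emission.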
For orientation: In TR-FRET formats the signal depends on donor and acceptor labels being close together.

The mark [2] stands for this setting: 1 μM protein target, 1:5 protein to compound ratio (compounds 853-1279).
Where [3] appears, read: 3.33 μM protein target, 1:7.5 protein to compound ratio (compounds 1-852).

Read-outs that look alike come from different tables or passages of the source. A value given as a limit tells only on which side of the number the result lay.

Cys242 in human PIK3CA (157-299), sequence (P42336 157-299): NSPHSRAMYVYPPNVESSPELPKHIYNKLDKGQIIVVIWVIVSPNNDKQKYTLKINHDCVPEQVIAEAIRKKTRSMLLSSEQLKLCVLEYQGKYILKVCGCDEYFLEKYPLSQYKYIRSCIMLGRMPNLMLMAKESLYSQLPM

What is called IC50 is the concentration at which inhibition is half-maximal. Consider `C=CC(=O)N1CCc2ccc(-c3nc(-c4ccc5c(c4)CN(CCOC)CC5(F)F)c4ccsc4c3-c3c(F)cc(F)cc3OCCOC)cc2C1` [Compound 1277], for which, in assay [1] (setting [2]), the “% of modification” value is “D (percent of modification <25%)”. The IC50 in the assay with pAKT in BT474 cells (Compounds 1000-1279) is more than 1 µM.

Consider `C=CC(=O)N1CCn2nc(-c3nc(-c4ccc5c(c4)CNC5=O)c4ccsc4c3-c3c(F)cc(F)cc3OCCO)cc2C1C` (stereo not drawn) [Compound 891], for which the “% of modification” value in assay [1] (setting [2]) is “A (percent of modification of PIK3CA protein ≥75%)”. In addition, in the assay with pAKT in BT474 cells (Compounds 10-999), the IC50 is less than 0.1 µM.

Turning to `C=CC(=O)N1CCC(n2cc(-c3nc(-c4cnn5c4C(=O)NCC5)c4ccsc4c3-c3ccc(F)cc3OCCOC)cn2)CC1` [Compound 230], the “% of modification” value in assay [1] (setting [3]) is listed as “B (50%<percent of modification <75%)”. For the same compound, in the assay with pAKT in BT474 cells (Compounds 10-999), the IC50 lay in the range of 0.1 to 1 µM.

Regarding `C=CC(=O)N1CCC(n2cc(-c3nc(-c4ccc5c(c4)CCNC5)c4ccsc4c3-c3ccc(F)cc3C#N)cn2)CC1` [Compound 93], the “% of modification” value in assay [1] (setting [3]) is “C (25%≤percent of modification <50%)”. Besides, the IC50 in the assay on pAKT in BT474 cells (Compounds 10-999) is more than 3 µM.

As to `C=CC(=O)N1CCn2nc(-c3nc(-c4ccc5c(c4)CCNC5=O)c4ccsc4c3-c3ccc(F)cc3OC(C)C)nc2C1` [Compound 219], in assay [1] (setting [3]), the “% of modification” value was “A (percent of modification of PIK3CA protein ≥75%)”. The half-maximal inhibitory concentration (IC50) in the assay with pAKT in BT474 cells (Compounds 10-999) is less than 0.1 µM.

With `C=CC(=O)N1CC(n2cc(-c3nc(N4CC5(CCNCC5)CC4=O)c4ccsc4c3-c3ccc(F)cc3OCCOC)cn2)C1` [Compound 106], the “% of modification” value in assay [1] (setting [3]) is listed as “C (25%≤percent of modification <50%)”. The IC50 in the assay on pAKT in BT474 cells (Compounds 10-999) was more than 3 µM.

Turning to `C=CC(=O)N1CCn2nc(-c3nc(-c4ccc5c(cnn5C)c4)c4ccsc4c3-c3c(F)cc(F)cc3OC)cc2C1C` (stereo not drawn) [Compound 1115], in assay [1] (setting [2]), the “% of modification” value was “A (percent of modification of PIK3CA protein ≥75%)”. The 50% inhibitory concentration (IC50) in the assay on pAKT in BT474 cells (Compounds 1000-1279) was less than 0.1 µM.

`C=CC(=O)N1Cc2cc(-c3nc(-c4ccc5c(c4)CCNC5=O)c4ccsc4c3-c3c(F)cc(F)cc3OCCO)nn2CC1C` (stereo not drawn) [Compound 907]: the “% of modification” value in assay [1] (setting [2]) is reported as “A (percent of modification of PIK3CA protein ≥75%)”. Moreover, the IC50 with pAKT in BT474 cells (Compounds 10-999) was less than 0.1 µM.

Regarding `C=CC(=O)N1Cc2cc(-c3nc(-c4ccc5cn[nH]c5c4)c4ccsc4c3-c3c(F)cc(F)cc3OCCOC)nn2C[C@H]1C` [Compound 690], the “% of modification” value in assay [1] (setting [3]) was “A (percent of modification of PIK3CA protein ≥75%)”. The 50% inhibitory concentration (IC50) in the assay on pAKT in BT474 cells (Compounds 10-999) is less than 0.1 µM.

With `C=CC(=O)N1Cc2cc(-c3nc(-c4cn(C)cn4)c4ccsc4c3-c3c(F)cc(F)cc3OC)nn2C[C@H]1C` [Compound 843], the “% of modification” value in assay [1] (setting [3]) is on record as “A (percent of modification of PIK3CA protein ≥75%)”. The IC50 in the assay with pAKT in BT474 cells (Compounds 10-999) was less than 0.1 µM.

As for `CC=C(C#N)C(=O)N1CCn2nc(-c3nc(-c4ccc5c(cnn5C)c4)c4ccsc4c3-c3c(F)cc(F)cc3OCCOC)cc2C1C` (stereo not drawn) [Compound 1239], the “% of modification” value in assay [1] (setting [2]) is on record as “C (25%≤percent of modification <50%)”. For the same compound, the IC50 in the assay on pAKT in BT474 cells (Compounds 1000-1279) is more than 1 µM.

On to `C=CC(=O)N1CCc2nc(-c3nc(-c4ccc5c(c4)CCNC5)c4c(c3-c3ccc(F)cc3OC)CCC4)sc2C1` [Compound 96, 1-[2-[4-(4-fluoro-2-methoxy-phenyl)-1-(1,2,3,4-tetrahydroisoquinolin-6-yl)-6,7-dihydro-5H-cyclopenta[c]pyridin-3-yl]-6,7-dihydro-4H-thiazolo[5,4-c]pyridin-5-yl]prop-2-en-1-one], for which the “% of modification” value in assay [1] (setting [3]) is “A (percent of modification of PIK3CA protein ≥75%)”. In the assay on pAKT in BT474 cells (Homo sapiens, BT-474, Compounds 10-999), the concentration for half-maximal inhibition (IC50) is 0.1 to 1 µM.

Take `C=CC(=O)N1CC(n2cc(-c3nc(-c4ccc5c(c4)CCNC5)c4ccsc4c3-c3ccc(F)cc3F)cn2)C1` [Compound 108]: the “% of modification” value in assay [1] (setting [3]) is listed as “A (percent of modification of PIK3CA protein ≥75%)”. In the assay on pAKT in BT474 cells (Compounds 10-999), the IC50 is 0.1 to 1 µM.

For `C=CC(=O)N1CCn2nc(-c3nc(-c4ccn5ncnc5c4)c4ccsc4c3-c3c(F)cc(F)cc3OCCOC)cc2C1C` (stereo not drawn) [Compound 985], the “% of modification” value in assay [1] (setting [2]) is recorded as “A (percent of modification of PIK3CA protein ≥75%)”. In the assay on pAKT in BT474 cells (Compounds 10-999), the IC50 was less than 0.1 µM.

With `C=CC(=O)N1CCn2nc(-c3nc(-c4cccc(C#N)c4)c4ccsc4c3-c3ccc(F)cc3OCCOC)cc2C1` [Compound 270], the “% of modification” value in assay [1] (setting [3]) is given as “A (percent of modification of PIK3CA protein ≥75%)”. In addition, the half-inhibitory concentration (IC50) in the assay with pAKT in BT474 cells (Compounds 10-999) was less than 0.1 µM.

With `C=CC(=O)N1CCn2nc(-c3nc(N4CCS(=O)(=O)CC4)c4ccsc4c3-c3ccc(F)cc3OC(C)C)cc2C1` [Compound 286], in assay [1] (setting [3]), the “% of modification” value was “A (percent of modification of PIK3CA protein ≥75%)”. Besides, the IC50 in the assay with pAKT in BT474 cells (Compounds 10-999) was more than 3 µM.

As for `C=CC(=O)N1Cc2cc(-c3nc(-c4nc(C)no4)c4ccsc4c3-c3c(F)cc(F)cc3OCCOC)nn2C[C@H]1C` [Compound 822], the “% of modification” value in assay [1] (setting [3]) was “A (percent of modification of PIK3CA protein ≥75%)”. Also, in the assay with pAKT in BT474 cells (Compounds 10-999), the half-maximal inhibitory concentration (IC50) is less than 0.1 µM.

`C=CC(=O)N1Cc2cc(-c3nc(-c4ccc5ncn(C)c5c4)c4ccsc4c3-c3c(F)cc(F)cc3OCCOC)nn2C[C@H]1C` [Compound 689]: in assay [1] (setting [3]), the “% of modification” value is recorded as “A (percent of modification of PIK3CA protein ≥75%)”. The IC50 in the assay on pAKT in BT474 cells (Compounds 10-999) is less than 0.1 µM.

Consider `C=CC(=O)N1CCc2nc(-c3nc(-c4cnc5c(c4)CNC(=O)C5)c4ccsc4c3-c3c(F)cc(F)cc3OC(C)C)sc2C1` (single isomer, unassigned) [Compound 587], for which the “% of modification” value in assay [1] (setting [3]) is given as “D (percent of modification <25%)”. Moreover, the IC50 in the assay on pAKT in BT474 cells (Compounds 10-999) was more than 3 µM.

`C=CC(=O)N1Cc2cc(-c3nc(-c4cnnc(C)c4)c4ccsc4c3-c3c(F)cc(F)cc3OCCO)nn2CC1C` (stereo not drawn) [Compound 829]: the “% of modification” value in assay [1] (setting [3]) was “A (percent of modification of PIK3CA protein ≥75%)”. Further, in the assay on pAKT in BT474 cells (Compounds 10-999), the 50% inhibitory concentration (IC50) was less than 0.1 µM.

Regarding `C=CC(=O)N1Cc2cc(-c3nc(-c4cc5n(n4)CCNC5=O)c4ccsc4c3-c3c(F)cc(F)cc3OCCOC)nn2C[C@H]1C` [Compound 685], the “% of modification” value in assay [1] (setting [3]) is recorded as “A (percent of modification of PIK3CA protein ≥75%)”. Further, the concentration for half-maximal inhibition (IC50) in the assay with pAKT in BT474 cells (Compounds 10-999) is less than 0.1 µM.

As for `C=CC(=O)N1CCc2nc(-c3nc(-c4ccc5c(c4)CCN(CC(F)F)CC5)c4ccsc4c3-c3c(F)cc(F)cc3OCCOC)sc2C1` [Compound 1270], the “% of modification” value in assay [1] (setting [2]) was “A (percent of modification of PIK3CA protein ≥75%)”. The IC50 in the assay on pAKT in BT474 cells (Compounds 1000-1279) was 0.1 to 1 µM.

As to `C=CC(=O)N1CCn2nc(-c3nc(-c4ccc(C5(F)CN(C)C5)cc4)c4ccsc4c3-c3c(F)cc(F)cc3OCCOC)cc2C1C` (stereo not drawn) [Compound 1044], the “% of modification” value in assay [1] (setting [2]) is given as “A (percent of modification of PIK3CA protein ≥75%)”. Moreover, the half-inhibitory concentration (IC50) in the assay on pAKT in BT474 cells (Compounds 1000-1279) is less than 0.1 µM.

As for `C=CC(=O)N1CCn2nc(-c3nc(-c4cnn(C5CN(C)C5)c4)c4ccsc4c3-c3c(F)cc(F)cc3OCC(C)O)cc2C1C` (stereo not drawn) [Compound 992], in assay [1] (setting [2]), the “% of modification” value is “A (percent of modification of PIK3CA protein ≥75%)”. The half-maximal inhibitory concentration (IC50) in the assay with pAKT in BT474 cells (Compounds 10-999) is less than 0.1 µM.

For `C=CC(=O)N1CCn2nc(-c3nc(-c4cn(C)cn4)c4ccsc4c3-c3c(F)cc(F)cc3OC[C@@H](C)O)cc2[C@H]1C` [Compound 744], the “% of modification” value in assay [1] (setting [3]) is “A (percent of modification of PIK3CA protein ≥75%)”. Further, the concentration for half-maximal inhibition (IC50) in the assay with pAKT in BT474 cells (Compounds 10-999) is less than 0.1 µM.

As for `C=CC(=O)N1CCn2nc(-c3nc(-c4cccc(OCCN(C)C)c4)c4ccsc4c3-c3c(F)cc(F)cc3OCCOC)cc2C1C` (stereo not drawn) [Compound 1046], in assay [1] (setting [2]), the “% of modification” value is given as “A (percent of modification of PIK3CA protein ≥75%)”. The IC50 in the assay with pAKT in BT474 cells (Compounds 1000-1279) is less than 0.1 µM.

As for `C=CC(=O)N1CC(n2cc(-c3nc(N4CC5CNCC5C4)c4ccsc4c3-c3ccc(F)cc3OCCOC)cn2)C1` (stereo not drawn) [Compound 134], the “% of modification” value in assay [1] (setting [3]) is “B (50%<percent of modification <75%)”. In the assay with pAKT in BT474 cells (Compounds 10-999), the IC50 fell in the range of 1 to 3 µM.
